Measurements from the NIST ThermoML archive (doi:10.1016/j.jct.2015.11.013).
Where “and” joins values, the source holds several entries; their conditions need not be identical. Identical values can stand only once.

Test: cn = amount concentration of the nth substance listed, in mol/dm3
Conditions: 298.15 K, 101.3 kPa, Liquid, Taylor dispersion method

Row | binary diffusion coefficient (c1 = 0.00075) [m2/s] | binary diffusion coefficient (c1 = 0.001) [m2/s] | binary diffusion coefficient (c1 = 0.0015) [m2/s] | binary diffusion coefficient (c1 = 0.002) [m2/s] | binary diffusion coefficient (c1 = 0.0025) | binary diffusion coefficient (c1 = 0.025) [m2/s] | binary diffusion coefficient (c1 = 0.05) [m2/s] | binary diffusion coefficient (c1 = 0.075) [m2/s] | binary diffusion coefficient (c1 = 0.085) [m2/s] | binary diffusion coefficient (c1 = 0.1) [m2/s] | Compound
1 | 1.19e-09 | 1.08e-09 | 9.5e-10 | 8.72e-10 | 8.49e-10 m2/s and 8.5e-10 m2/s | – | – | – | – | – | CCCCCCCC(=O)O [octanoic acid] + O
2 | – | – | – | – | – | 8.56e-10 | 8.54e-10 | 8.52e-10 | 8.51e-10 | 8.5e-10 | CCCCCCCC(=O)[O-].[Na+] [sodium octanoate] + O
3 | – | – | – | – | 3.53e-10 m2/s | – | – | – | – | – | OC[C@H]1O[C@@H]2O[C@H]3[C@H](O)[C@@H](O)[C@@H](O[C@H]4[C@H](O)[C@@H](O)[C@@H](O[C@H]5[C@H](O)[C@@H](O)[C@@H](O[C@H]6[C@H](O)[C@@H](O)[C@@H](O[C@H]7[C@H](O)[C@@H](O)[C@@H](O[C@H]1[C@H](O)[C@H]2O)O[C@@H]7CO)O[C@@H]6CO)O[C@@H]5CO)O[C@@H]4CO)O[C@@H]3CO [α-cyclodextrin] + O
